Assays:
[1] = tested on: fouling organisms (predominantly barnacles, small percentages of bryozoans and oysters); test: Port Stephens Stage I field trial: fouling cover on coated live oysters; assay type: in vivo; conditions: sub-tidal; for Mean fouling cover on coated oysters: 22 week trial, untreated control 50%
Excerpt: The field trial testing the antifouling coatings on oysters at the Port Stephens Fisheries Centre was finalised on week 22 of the trial. This coincided with the slight increase, at varying rates, of the fouling cover on the treated oysters, as shown by FIG. 8.
The trial was testing the antifouling efficacy of two different active ingredients (AI's). Sea-Nine 211™ and the furanone 281, incorporated into carrier coatings when applied to live oysters. The AI's are being tested at concentrations ranging from 10-15% by weight of the carrier coating, using both single and double coats. The trial was conducted in both the inter-tidal and the sub-tidal. In addition to monitoring fouling, oyster mortality was monitored to determine if the coatings and methods used were harmful to the oysters.
Fouling cover was first measured 6 weeks after the start of the trial and has been measured every 3 weeks thereafter. Coated oysters were photographed in the field using a digital camera and fouling cover was measured in the laboratory using the digital images. Fouling cover was measured by estimating the percentage cover of fouling organisms on the oysters. The fouling cover observed was comprised predominantly of barnacles and a small percentages of bryozoans and oysters.

Pacific oyster recruits = test: Port Stephens Stage I field trial: Pacific oyster bycatch on coated oysters; assay type: in vivo; conditions: sub-tidal, double coated treatments, at either 10 or 15%
Excerpt: After twelve weeks into the fouling trial there was a Pacific oyster settlement event. This enabled an observation of the efficacy of the different coatings as inhibitors of oyster bycatch. FIG. 9 presents the number of new Pacific oyster recruits that settled on the coated oysters.

fouling organisms = test: Stage II shellac trial: fouling on coated perspex tiles; assay type: in vivo; conditions: shellac carrier, 10% double layer, 15% single and double layers, controls 75% fouling cover after 4 weeks
Experimental: (§1) The shellac trial (stage II) was run for 30 weeks. This experiment was conducted to improve novel antifouling techniques for the aquaculture industry. Shellac was used as a carrier to coat Sea-Nine 211™ onto perspex tiles to determine whether Shellac with C9-211 was effective as an antifouling application and whether the rate at which Sea-Nine 211™ would leach out of the shellac formulation.

[2] = Stage II shellac trial: leaching / release of Sea-Nine 211 from shellac; assay type: physicochemical
Experimental: as §1
Measurements of leaching were carried out to determine the decrease in concentration of Sea-Nine 211™ in each treatment, as shown on FIG. 11. This indicates a regular rate of leaching over the 18 week trial period for each treatment of the same concentration. The rate of leaching is highest for the 15% Sea-Nine 211™ loadings (single and double), while decreasing with reduced compound loading.
The rate of compound release per day is important on determining the effectiveness of a given treatment over time (FIG. 12). Treatments 5% single layer, 10% single and double layer and 15% double layer had the highest initial drops with release rates from 1-2 μg/cm^2/day. The release rate varied for each treatment, over the following 16 weeks, but remained less than 2.0 μg/cm^2/day (FIG. 12).

- Rate of leaching from shellac ([2]; 15% loadings (single and double), 18 week trial period): highest
- Release rate from shellac ([2]; each treatment, over the following 16 weeks): less than 2.0 μg/cm^2/day
- Release rate from shellac ([2]; initial, treatments 5% single layer, 10% single and double layer, 15% double layer): 1-2 μg/cm^2/day
Structure (SMILES): CCCCCCCCn1sc(Cl)c(Cl)c1=O [Sea-Nine 211™, 4,5-dichloro-2-n-octyl-4-isothiazolin-3-one]
- Mean fouling cover on coated oysters ([1]; active ingredient 10%, single and double coatings): 20%
- Mean fouling cover on coated oysters ([1]; active ingredient 15% in carrier coating, single and double coats): 15%
- Inhibition of fouling cover ([1]; 15% single and double coats): 85%
- Inhibition of Pacific oyster bycatch (Pacific oyster recruits): almost totally inhibiting bycatch
- Time tiles remained unfouled (fouling organisms): 30 weeks

Reference: patent US6692557B1, “Antifouling of shellfish and aquaculture apparatus” (Unisearch Limited, priority 1997, dated 2004)
